The record followed here is patent US10766884B2 (Pfizer Inc., priority 2018, dated 2020).

pIC50, pKi: −log10 of the molar value.

In assay [1] the target is CDK6/Cyclin D3 (Homo sapiens (Human), UniProt Q00534). In words: CDK6/Cyclin D3 mobility shift assay. Type of assay: biochemical. As to conditions: activated CDK6/Cyclin D3, 3.5 mM ATP, Morrison fit; read-out: CDK6_D3 Ki.
The target of assay [2] is CDK6 (Homo sapiens (Human), UniProt Q00534). The assay is described as follows: Phospho-Serine 795 Rb ELISA assay in MV4-11 cells. Type of assay: cell-based. As to conditions: overnight treatment, phospho-Rb S795, read-out: CDK6 pRB S795 ELISA MV4-11 cells IC50. The protocol: (§1) JEKO-1 or MV4-11 cells were seeded at 15,000 or 20,000 cells per well, respectively, in 100 μL growth media and allowed to incubate at 37° C. with 5% CO2 overnight. The following day, compounds were serially diluted from a 10 mM top dose for an 11-point 3-fold dilution curve in DMSO. Compounds were intermediately diluted 1:200 into growth media prior to diluting 1:5 on cells for final concentration 10 μM to 0.1 nM in 0.1% DMSO on cells. JEKO-1 and MV4-11 cells were treated were treated overnight, at 37° C. with 5% CO2. Cells were lysed in 100 μL/well CST lysis buffer on ice and transferred to pre-coated and blocked anti-phospho-Ser795 Rb ELISA plates for overnight incubation at 4° C. Plates were washed to remove residual, unbound cellular proteins and total Rb detection antibody added for 90 minutes at 37° C. Following wash to remove unbound total Rb antibody, the HRP tagged antibody was allowed to bind for 30 minutes at 37° C. Following wash to remove unbound HRP antibody, Glo Substrate Reagent was added and incubated protected from light for 5 to 10 minutes. Plates were read in luminescence mode and IC50 values calculated.
(In general: ELISA stands for enzyme-linked immunosorbent assay.)

The target in assay [3] is CDK4/Cyclin D1 (Homo sapiens (Human), UniProt P11802). In words: CDK4/Cyclin D1 mobility shift assay. Type of assay: biochemical. The settings on record: activated CDK4/Cyclin D1, 3.5 mM ATP, Morrison fit; read-out: CDK4D1 Ki.
Assay [4] addresses CDK4 (Homo sapiens (Human), UniProt P11802). The assay is described as follows: Phospho-Serine 795 Rb ELISA assay in JEKO-1 cells. The settings on record: overnight treatment, phospho-Rb S795, read-out: CDK4 pRB S795 ELISA JEKO-1 cells IC50. Type of assay: cell-based. The protocol: as §1

Sequence of CDK6 (Q00534 whole entry): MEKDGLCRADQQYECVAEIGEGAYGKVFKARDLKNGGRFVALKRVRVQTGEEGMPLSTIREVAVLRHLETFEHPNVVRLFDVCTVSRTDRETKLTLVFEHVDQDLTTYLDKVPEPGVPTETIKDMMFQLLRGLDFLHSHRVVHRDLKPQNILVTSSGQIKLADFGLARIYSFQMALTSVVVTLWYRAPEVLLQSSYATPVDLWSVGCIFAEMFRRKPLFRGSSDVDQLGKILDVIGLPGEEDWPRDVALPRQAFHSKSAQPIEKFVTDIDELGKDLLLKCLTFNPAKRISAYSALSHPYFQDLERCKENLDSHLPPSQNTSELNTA
Sequence of CDK6 (P30281 whole entry partner): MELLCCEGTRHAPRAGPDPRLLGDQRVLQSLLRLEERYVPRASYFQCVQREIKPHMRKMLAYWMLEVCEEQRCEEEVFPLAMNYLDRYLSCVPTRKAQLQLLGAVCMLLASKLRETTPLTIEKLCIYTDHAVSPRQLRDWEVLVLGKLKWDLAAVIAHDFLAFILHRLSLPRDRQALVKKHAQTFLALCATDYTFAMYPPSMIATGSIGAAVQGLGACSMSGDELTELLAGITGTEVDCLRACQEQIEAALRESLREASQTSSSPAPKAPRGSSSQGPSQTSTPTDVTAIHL
Sequence of CDK6/Cyclin D3 (Q00534 whole entry): as the sequence (Q00534 whole entry) above
Sequence of CDK6/Cyclin D3 (P30281 whole entry partner): as the sequence (P30281 whole entry partner) above
Sequence of CDK4 (P11802 2-303): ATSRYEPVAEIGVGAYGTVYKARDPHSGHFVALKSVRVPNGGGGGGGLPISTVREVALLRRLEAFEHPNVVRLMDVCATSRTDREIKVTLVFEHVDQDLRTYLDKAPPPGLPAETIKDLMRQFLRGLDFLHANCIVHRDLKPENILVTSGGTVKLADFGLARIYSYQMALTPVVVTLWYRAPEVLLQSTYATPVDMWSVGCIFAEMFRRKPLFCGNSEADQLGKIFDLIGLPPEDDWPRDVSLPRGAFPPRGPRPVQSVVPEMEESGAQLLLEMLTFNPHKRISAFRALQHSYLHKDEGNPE
Sequence of CDK4 (P24385 whole entry partner): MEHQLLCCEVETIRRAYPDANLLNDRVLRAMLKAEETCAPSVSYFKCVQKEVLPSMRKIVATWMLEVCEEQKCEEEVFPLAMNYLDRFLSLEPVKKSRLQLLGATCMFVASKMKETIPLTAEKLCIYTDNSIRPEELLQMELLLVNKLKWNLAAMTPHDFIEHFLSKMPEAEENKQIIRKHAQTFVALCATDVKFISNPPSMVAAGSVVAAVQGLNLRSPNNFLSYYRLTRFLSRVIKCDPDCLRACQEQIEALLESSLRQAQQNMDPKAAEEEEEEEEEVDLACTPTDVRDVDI
Sequence of CDK4/Cyclin D1 (P11802 whole entry): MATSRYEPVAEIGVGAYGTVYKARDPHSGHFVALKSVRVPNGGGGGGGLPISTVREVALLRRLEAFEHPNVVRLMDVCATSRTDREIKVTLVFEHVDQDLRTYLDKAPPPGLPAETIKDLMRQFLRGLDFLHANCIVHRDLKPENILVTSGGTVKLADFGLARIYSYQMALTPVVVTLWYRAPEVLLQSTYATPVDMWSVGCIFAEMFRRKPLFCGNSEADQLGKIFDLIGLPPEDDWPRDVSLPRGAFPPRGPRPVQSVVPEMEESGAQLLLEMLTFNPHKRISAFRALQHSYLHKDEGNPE
Sequence of CDK4/Cyclin D1 (P24385 whole entry partner): as the sequence (P24385 whole entry partner) above

Regarding `CC(C)(C)n1cnc2c(F)cc(-c3nc(N[C@@H]4CCN(C(=O)C5(F)CNC5)C[C@H]4O)ncc3Cl)cc21` [Example F26, [(3R,4R)-4-{[4-(1-tert-butyl-4-fluoro-1H-benzimidazol-6-yl)-5-chloropyrimidin-2-yl]amino}-3-hydroxypiperidin-1-yl](3-fluoroazetidin-3-yl)methanone], the results for the negative-log Ki (pKi) in assay [1] and in assay [3] were 8.34 and 10.00, respectively. Also, the pIC50 (commonly the IC50 on a negative log10 scale, so that one unit is a factor of ten) in assay [2] is 6.74; in assay [4], 6.85.
In the case of `CC(=O)N1CC[C@@H](Nc2ncc(F)c(-c3cc(F)c4nc(C)n(C(C)C)c4c3)n2)[C@H](O)C1` [Example F16, 1-[(3R,4R)-4-({5-fluoro-4-[4-fluoro-2-methyl-1-(propan-2-yl)-1H-benzimidazol-6-yl]pyrimidin-2-yl}amino)-3-hydroxypiperidin-1-yl]ethan-1-one], the negative-log Ki (pKi) – broadly, the negative decadic logarithm of the Ki, by convention in mol/L – was 7.59 in assay [1] and 8.85 in assay [3]. In addition, the negative-log IC50 (pIC50) was 6.44 in assay [2] and 6.17 in assay [4].
For `CC(C)n1cnc2c(Cl)cc(-c3nc(N[C@@H]4CCN(C(=O)[C@@H](C)O)C[C@H]4O)ncc3Cl)cc21` [Example F20, (2R)-1-[(3R,4R)-4-({5-chloro-4-[4-chloro-1-(propan-2-yl)-1H-benzimidazol-6-yl]pyrimidin-2-yl}amino)-3-hydroxypiperidin-1-yl]-2-hydroxypropan-1-one], in that order: 7.61, 8.70, 6.10 and 6.81.
For `CC(C)n1c(C(C)(O)C2CC2)nc2c(F)cc(-c3nc(N[C@@H]4CCOC[C@H]4O)ncc3Cl)cc21` (single isomer, unassigned) [Example A23], in that order: 7.94, 9.30, 7.08 and 7.58.
Turning to `CC(C)n1c(C2CNC2)nc2c(F)cc(-c3nc(N[C@@H]4CCOC[C@H]4O)ncc3Cl)cc21` [Example C02, 1,5-anhydro-3-({4-[2-(azetidin-3-yl)-4-fluoro-1-(propan-2-yl)-1H-benzimidazol-6-yl]-5-chloropyrimidin-2-yl}amino)-2,3-dideoxy-D-threo-pentitol], the values for the negative logarithm of the Ki (pKi) in assay [1] and in assay [3] were 7.05 and 8.39, respectively. The pIC50 is 5.87 in assay [2] and 6.23 in assay [4].
With `Cc1nc2cc(F)c(-c3ccnc(N[C@@H]4CCN(S(C)(=O)=O)C[C@H]4O)n3)cc2n1C(C)C` [Example A05], the results for the pKi in assay [1] and in assay [3] were 7.29 and 8.48, respectively. In addition, the figures for the pIC50 in assay [2] and in assay [4] were 6.27 and 6.65, respectively.
Regarding `CC(N)c1nc2c(F)cc(-c3nc(N[C@@H]4CCN(S(C)(=O)=O)C[C@H]4O)ncc3Cl)cc2n1C(C)C` (single isomer, unassigned) [Example A48], the negative logarithm of the Ki (pKi) in assay [1] was 8.64; in assay [3], 10.00. Besides, the negative logarithm of the IC50 (pIC50) in assay [2] was 7.23; in assay [4] it was 7.44.
The corresponding values for `CC(O)c1nc2c(F)cc(-c3nc(N[C@@H]4CCOC[C@H]4O)ncc3Cl)cc2n1C(C)C(F)F` (single isomer, unassigned) [Example A36] are 8.43, 9.70, 7.36 and 7.71.
With `CC(C)(C)n1cnc2c(F)cc(-c3nc(N[C@@H]4CCN(C(=O)C5(N)CC(F)(F)C5)C[C@H]4O)ncc3Cl)cc21` [Example F30, (1-amino-3,3-difluorocyclobutyl)[(3R,4R)-4-{[4-(1-tert-butyl-4-fluoro-1H-benzimidazol-6-yl)-5-chloropyrimidin-2-yl]amino}-3-hydroxypiperidin-1-yl]methanone], the pKi is 7.90 in assay [1] and 9.30 in assay [3]. Besides, the pIC50 in assay [2] is 6.42; in assay [4], 7.18.
